# Reference: patent US11360080B2, “AhR-ROR-γt complex as a biomarker and therapeutic target for autoimmune disease and IL-17A-associated disease” (NATIONAL HEALTH RESEARCH INSTITUTES, priority 2018, dated 2022)
# System: CIA in wild-type mice
# Experiment: Collagen-induced arthritis (CIA) induction in wild-type mice
# Assay type: in vivo, mouse
# Text: (A to C) Effect of the GLK inhibitor C1 (verteporfin) administration (0.556 nmole/g every 3 days for 30 days) on serum IL-17A and autoantibodies in Lck-GLK Tg mice. (B) ELISA of indicated serum cytokines in Lck-GLK Tg mice treated with C1 (verteporfin) or PBS. (C) ELISA of serum autoantibodies in Lck-GLK Tg mice treated with C1 (verteporfin) or PBS. Means±SEM are shown. (D) Experimental autoimmune encephalomyelitis (EAE) induction in wild-type mice treated with PBS, or the GLK inhibitor C1 (verteporfin) and C2. Clinical scores are presented on a scale of 1 to 5 (left panel). ELISA of IL-17A in the sera from MOG-immunized mice at day 16 (right panel). (E) Collagen-induced arthritis (CIA) induction in wild-type mice treated with the GLK inhibitor C1 (verteporfin) or PBS. Clinical scores are presented on a scale of 1 to 16 (left panel). ELISA of IL-17A in the sera from collagen-immunized mice at day 28. Means±SEM are shown. *, P value<0.05; **, P value<0.01; ***, P value<0.001 (two-tailed Student's […]). C1 denotes verteporfin; C2 denotes alexidine dihydrochloride.
# Moreover, overproduction of autoantibodies in Lck-GLK Tg mice were also abolished by C1 (verteporfin) treatment (FIG. 10C). […] To further verify that the GLK inhibitors also works in IL-17A-mediated animal models, we challenged wild-type mice with C1 (verteporfin) or C2 (alexidine dihydrochloride) during EAE and CIA induction.
compound,measurement,setting,value
"C=Cc1c(C)c2cc3nc(cc4[nH]c(cc5nc(cc1[nH]2)C(C)=C5CCC(=O)O)c(CCC(=O)OC)c4C)[C@@]1(C)C3=CC=C(C(=O)OC)[C@H]1C(=O)OC [C1, verteporfin]",serum IL-17A levels in CIA,day 28,inhibited
same,disease severity (clinical score) in CIA,"mouse, in vivo",inhibited
